{"source": "patent US7456225B1", "about": "“Liver protection compounds of the cyclohexenone type from Antrodia camphorata” (Golden Biotechnology Corporation, priority 2007, dated 2008)", "key": {"[1]": {"assay": "Body weights of rats in CCl4 liver injury model", "type": "in vivo, Sprague-Dawley (SD) rats", "conditions": "CCl4-treated rats, stomach tube, 8th week", "experimental": "The animal model was performed with five-week-old Sprague-Dawley (SD) rats purchased from BioLasco Taiwan Co., Ltd. Healthy rats weighing 220-270 g were chosen for experiment after observing for 2 weeks in the laboratory animal room. The rats were randomly divided into 6 groups (12 rats/group): normal (gp. A); control groups including model control (gp. B) and positive control (gp. C, animals receiving silymarin); treatment groups including animals receiving 300 mg/kg of cyclohexenone (gp. D), 1000 mg/kg of cyclohexenone (gp. E), and 3000 mg/kg of cyclohexenone (gp. F), as indicated in Table 1. Only normal group was not poisoned with CCl4. The body weights were recorded to calculate the dosage. […] It helps to remove toxins from liver cells by either neutralizing the toxicity of toxic compounds or competing with the binding sites in liver. It is a potent antioxidant, protects the liver from free radicals. It has been widely studied for treating various types of liver injury in animals and clinical trials. The beneficial effects on liver protection have made silymarin a good medicine for liver diseases and a drug in positive control group for the animal model of liver injury. Rats in normal group (group A) were fed with corn oil (Sigma chemical co.) by means of stomach tubes. Carbon tetrachloride (Shimakyu, Osaka, Japan) was administered to groups B to F via stomach tubes twice weekly (every Tuesday and Thursday afternoon) for 8 weeks, at a dose of 2 ml/kg of body weight, diluted with corn oil. Silymarin was prepared with saline in an amount of 200 mg/kg of body weight and was fed to rats of group C via a stomach tube. Cyclohexenone prepared from example 1 was mixed with saline, and fed in the amounts of 300 mg/kg, 1000 mg/kg and 3000 mg/kg of body weight to rats of group D to F via stomach tubes. The total feeding volume was estimated in the ratio of 10 ml/kg of body weight to groups C to F five days a week (every morning) for 8 weeks. The body weights of rats and the amounts of food intake in rats for each group were shown in FIG. 1 and FIG. 2, respectively. […]"}, "[2]": {"test_system": "CCl4 induced liver injury in rats", "assay": "Serum indicators of liver function (ALT, AST, cholesterol)", "type": "in vivo, Sprague-Dawley (SD) rats", "conditions": "CCl4-treated rats, 8 weeks", "experimental": "The animal model was performed with five-week-old Sprague-Dawley (SD) rats purchased from BioLasco Taiwan Co., Ltd. Healthy rats weighing 220-270 g were chosen for experiment after observing for 2 weeks in the laboratory animal room. The rats were randomly divided into 6 groups (12 rats/group): normal (gp. A); control groups including model control (gp. B) and positive control (gp. C, animals receiving silymarin); treatment groups including animals receiving 300 mg/kg of cyclohexenone (gp. D), 1000 mg/kg of cyclohexenone (gp. E), and 3000 mg/kg of cyclohexenone (gp. F), as indicated in Table 1. Only normal group was not poisoned with CCl4. The body weights were recorded to calculate the dosage. […] It helps to remove toxins from liver cells by either neutralizing the toxicity of toxic compounds or competing with the binding sites in liver. It is a potent antioxidant, protects the liver from free radicals. It has been widely studied for treating various types of liver injury in animals and clinical trials. The beneficial effects on liver protection have made silymarin a good medicine for liver diseases and a drug in positive control group for the animal model of liver injury.\nRats in normal group (group A) were fed with corn oil (Sigma chemical co.) by means of stomach tubes. Carbon tetrachloride (Shimakyu, Osaka, Japan) was administered to groups B to F via stomach tubes twice weekly (every Tuesday and Thursday afternoon) for 8 weeks, at a dose of 2 ml/kg of body weight, diluted with corn oil. Silymarin was prepared with saline in an amount of 200 mg/kg of body weight and was fed to rats of group C via a stomach tube. Cyclohexenone prepared from example 1 was mixed with saline, and fed in the amounts of 300 mg/kg, 1000 mg/kg and 3000 mg/kg of body weight to rats of group D to F via stomach tubes. The total feeding volume was estimated in the ratio of 10 ml/kg of body weight to groups C to F five days a week (every morning) for 8 weeks. The body weights of rats and the amounts of food intake in rats for each group were shown in FIG. 1 and FIG. 2, respectively.\nAll rats were sacrificed at the end of the 8th week of experiment, blood samples were collected from abdominal aorta for assessing liver biochemical parameters. Five ml of blood were transferred to a tube and centrifuged at 775×g for 15 min. 0.5 ml of serum was analyzed on an Express plus automatic clinical chemistry analyzer (Chiron diagnostics corporation, OH, USA) with commercial kits of ALT (Bayer diagnostics, Cat No. E36941), AST (Bayer diagnostics, Cat No. E37041) and cholesterol (Bayer diagnostics, Cat No. E33940). All values are expressed as mean ±SD, which were evaluated using One-way Analysis of Variance. Those with significant differences were further tested with the Least Significant Difference Test (LSD) or Student t-test to compare cyclohexenone treatment groups and normal groups, positive control and model groups. P<0.05 was selected as criterion for statistical significance in all cases."}, "[3]": {"conditions": "cyclohexenone 1000 mg/kg, listed as cyclohexenone"}}, "data": [{"smiles": "COC1=C(OC)C(O)C(C/C=C(\\C)CC/C=C(\\C)CCC=C(C)C)C(C)C1=O", "note": "(centres unmarked) [Cyclohexenone from Antrodia camphorata, 4-hydroxy-2,3-dimethoxy-6-methyl-5(3,7,11-trimethyl-dodeca-2,6,10-trienyl)-cyclohex-2-enone]", "values": [{"measurement": "body weight", "setting": "[1]; cyclohexenone 300 mg/kg", "result": 386.6, "unit": "g"}, {"measurement": "body weight", "setting": "[1]; cyclohexenone 1000 mg/kg", "result": 365.1, "unit": "g"}, {"measurement": "body weight", "setting": "[1]; cyclohexenone 3000 mg/kg", "result": 355.0, "unit": "g"}, {"measurement": "ALT", "setting": "[2]; cyclohexenone 300 mg/kg", "result": "226.6 ± 138.7", "unit": "a U/L"}, {"measurement": "AST", "setting": "[2]; cyclohexenone 300 mg/kg", "result": "323.4 ± 189.0", "unit": "U/L"}, {"measurement": "Cholesterol", "setting": "[2]; cyclohexenone 300 mg/kg", "result": "63.7 ± 15.1", "unit": "mg/dL"}, {"measurement": "ALT", "setting": "[2]; cyclohexenone 1000 mg/kg", "result": "181.7 ± 78.4", "unit": "a U/L"}, {"measurement": "AST", "setting": "[2]; cyclohexenone 1000 mg/kg", "result": "283.2 ± 144.2", "unit": "U/L"}, {"measurement": "Cholesterol", "setting": "[2]; cyclohexenone 1000 mg/kg", "result": "69.6 ± 14.8", "unit": "mg/dL"}, {"measurement": "ALT", "setting": "[2]; [3]", "result": "181.7±78.4", "unit": "U/L"}, {"measurement": "AST", "setting": "[2]; [3]", "result": "283.2±144.2", "unit": "U/L"}, {"measurement": "ALT", "setting": "[2]; cyclohexenone 3000 mg/kg", "result": "206.0 ± 98.4", "unit": "a U/L"}, {"measurement": "AST", "setting": "[2]; cyclohexenone 3000 mg/kg", "result": "311.7 ± 99.6", "unit": "U/L"}, {"measurement": "Cholesterol", "setting": "[2]; cyclohexenone 3000 mg/kg", "result": "62.1 ± 16.2", "unit": "mg/dL"}]}]}
